The numbers were not newly measured in article PMC9963398, “Discovery of New Quinolone-Based Diarylamides as Potent B-RAF^V600E/C-RAF Kinase Inhibitors Endowed with Promising In Vitro Anticancer Activity” (International Journal of Molecular Sciences, 2023), which cites them from elsewhere.

One may read the GI50 as the concentration at which growth is held to half of that of the control.

What all share (parameters): method as in PMID 32745753
The test system of data set [1] is NCI-H23. To be noted: NCI-H23, NSCL cancer; cited from earlier work.
Data set [2] has as its system HCT-15. To be noted: HCT-15, Colon cancer; cited from earlier work.
The test system of data set [3] is KM12. To be noted: KM12, Colon cancer; cited from earlier work.
In data set [4] the test system is SF-268. To be noted: SF-268, CNS cancer; cited from earlier work.
For data set [5], the system named is M14. The conditions noted are these: M14, Melanoma; cited from earlier work.
Data set [6] has as its system SK-MEL-2. To be noted: SK-MEL-2, Melanoma; cited from earlier work.
Data set [7] deals with IGROV1. To be noted: IGROV1, Ovarian cancer; cited from earlier work.
The test system of data set [8] is OVCAR-5. To be noted: OVCAR-5, Ovarian cancer; cited from earlier work.
Data set [9] concerns NCI/ADR-RES. The conditions noted are these: Ovarian cancer; cited from earlier work.
In data set [10] the test system is 786-0. The conditions noted are these: 786-0, Renal cancer; cited from earlier work.
For data set [11], the system named is UO-31. To be noted: UO-31, Renal cancer; cited from earlier work.

Turning to `CNC(=O)c1cc(Oc2ccc(NC(=O)Nc3ccc(Cl)c(C(F)(F)F)c3)cc2)ccn1` [Sorafenib], the GI50 in data set [1] is 1800 nM; in [2] it was 2500 nM; in [3], 1600 nM; in [4] it was 2500 nM; in data set [5], 2200 nM; in data set [6], 1800 nM. Also, the GI50 in data set [7] was 2600 nM; in data set [8], 2900 nM; in data set [9] it was 2500 nM; in data set [10], 3.4 µM; in data set [11] it was 2600 nM.
